Read-outs that look alike come from different tables or passages of the source.
Key:
[1] = Blood-brain barrier penetration of loperamide, mouse hot-plate test; type: in vivo, mice
From the text: These increases were dose dependent with respect to loperamide.

[2] = system: MDA/LCC6 human breast carcinoma xenografts; test: In vivo antitumor efficacy, non-P-gp-expressing MDA/LCC6 xenografts; design: species or system SCID mice; conditions: non-P-gp expressing tumor cells, FIG. 2
Method: Anti-tumor efficacy experiments with orthotopic MDA/LCC6 and MDA/LCC6^MDR1 tumors were conducted in female SCID/RAG2 mice. Ascites propagated cells (2×10^6 in 50 μl) were injected into mammary fat pads bilaterally on day 0 before randomization into groups of 5 mice per group. Paclitaxel (12 mg/kg/dose) was administered QD i.v. (tail vein) in 200 μl saline/Cremophor/ethanol (8/1/1 by volume) on days 5, 12, 19, and 26. The compound of Formula 2-free base (30 mg/kg/dose) was administered BID p.o. by gavage in 100 μl PEG 400/Tween 20 (9/1 by volume) on days 4-6, 11-13, 18-20, and 25-27. Mean body weights were recorded at least every other day. Tumor weight was monitored approximately every other day by caliper measurements and calculated according to the formula (Tumor weight =(length×width^2)÷2). This conversion formula was verified by comparing the calculation derived tumor weights to excised and weighed tumors. Animals bearing ulcerated tumors or where tumor weight exceeded 10% of the animal's body weight were terminated. The weights of the bilateral tumors were averaged for each mouse and mean tumor weights for each treatment group±standard error of the mean were calculated. Statistical analysis was carried out by Mann-Whitney test using GraphPad Prism software (San Diego, Calif.).

tumor-bearing mice = conditions: 20 mg/kg paclitaxel with the compound of Formula 2
human CYP3A4 = human CYP3A4 (Homo sapiens, UniProt P08684); test: Inhibition of CYP3A4-mediated paclitaxel metabolism; type: in vitro ADME
From the text: Two enzymes primarily responsible for metabolism of paclitaxel are P450 CYP3A4 and CYP2C8. Some P-gp inhibitors are also metabolized by P450 CYP 3A4, leading to inhibition of paclitaxel metabolism. This may contribute to PK interactions with paclitaxel.

[3] = Saquinavir in rat cerebrospinal fluid and brain after oral ONT-093 or vehicle; type: in vivo, Sprague Dawley rats; conditions: Group 3: after OC-144-093 20 mg/kg p.o.; 30 min after saquinavir dose; individual animals 3001-3004; 20 mg/kg
Method: Blood samples (ca 0.3 mL) were collected from 8 selected rats by jugular venipuncture during slight anesthesia pre-dose and at 0.25, 0.5, 1, 2, 4 and 8 post-dose (saquinavir dose). Cerebrospinal fluid (CSF) and brain tissue were collected terminally from the remaining 8 rats at ca 30 min following administration of the dose of saquinavir. Blood samples were collected into tubes containing EDTA and placed on wet ice pending centrifugation. Plasma, CSF and brain tissue samples were stored at ca −80° C. until analysis of saquinavir by LC/MS. The vehicle used was polyethylene glycol (PEG-400)1 Tween 20 (9:1; v:v).
A total of 16 male Sprague Dawley rats were received from Charles River Canada (Saint-Constant, Quebec). Animals were approximately 9 weeks of age at arrival and weighed ca 312-340 g. Four males were randomly assigned to each of Groups 1, 2, 3 and 4. On the day of dosing and following an overnight fast, animals were weighed (ca 305-323 g) and were administered their respective combination of doses. Animals of Groups 1 and 3 received a single oral dose of ONT-093 (20 mg/kg) by gavage at a dose volume of 2 mL/kg. Animals of Groups 2 and 4 received a single oral dose of the vehicle by gavage at a dose volume of 2 mL/kg. Approximately 30 min following administration of either ONT-093 or the vehicle, all animals received a single oral dose of saquinavir (20 mg/kg) by gavage at a dose volume of 1 mL/kg.
Following administration of saquinavir, blood samples (ca 0.3 mL in EDTA) were obtained from all rats of Groups 1 and 2 by jugular venipuncture during anesthesia with isoflurane (Ohmeda Pharmaceutical Products) at each of the following time-points: pre-dose (prior to administration of ONT-093 or vehicle) and 0.25, 0.5, 1, 2, 4 and 8 hr post-dose. Following administration of saquinavir, CSF was obtained from all animals of Groups 3 and 4 at 30 min following dose administration. CSF was collected (in tubes containing no anticoagulant) from the cistema magna during anesthesia with isoflurane. Following CSF collection, the animals were sacrificed by exsanguination via puncture of the vena cava and the brain was harvested from all these rats. Immediately following collection, all samples (blood, CSF and brain) were placed on ice until further processing or storage. Blood samples were centrifuged (ca 3080 g at ca 4° C. for 10 min) and the resulting plasma samples were stored at ca −80° C. pending analysis. CSF samples and brains were stored at ca −80° C. pending analysis.
Plasma samples, CSF samples and brains were analyzed for unchanged saquinavir using an LC/MS assay. Pharmacokinetic analysis was performed on plasma concentrations using the PhAST Software Program, Version 2.2-00 (Phoenix International Life Sciences Inc.). The highest observable concentration was assumed to be the peak concentration (Cmax); Time to Cmax was denoted Tmax. The area under the plasma concentration versus time-curve from time zero to the last measurable concentration [AUC(tf] was calculated by the linear trapezoidal method. Where applicable, numerical values were subjected to calculation of group means and % CV. Student-T-test with Satterthwaite approximation was performed on AUC and Cmax values to compare ONT-093 treated animals versus vehicle treated animals using SAS software program, Version 6.12 (SAS Institute Inc., Gary, N.C.). Where values were below limit of quantification, zero was used for pharmacokinetic analysis. The bioavailability (F) of saquinavir when administered with ONT-093 was calculated relative to the AUC values obtained from the animals receiving saquinavir following administration of the vehicle.

HCT-15 = test: Reversal of MDR in P-gp-expressing cell line; type: cell-based; conditions: Homo sapiens; HCT-15 colorectal carcinoma; read-out: Formula 2 compound EC50, reversal of Paclitaxel resistance
Method: (§1) Cell proliferation IC50s and MDR reversal EC50s were determined from 3-day dose-response curves carried out in triplicate in 96-well plates essentially as described by Monks et al. (J. Natl. Cancer Inst., 83:757-66, 1991). Cells were plated in standard growth medium at 2.5 or 5.0×10^4 per well (CCRF-CEM and CEM/VLB1000 respectively) or 5×10^3 per well (all other cell lines) in a final volume of 100 μl. After a 2 h incubation for non-adherent cells and overnight incubation for adherent cells, the initial cell density was determined by fluorescence readout of Alamar Blue metabolism. The compound of Formula 2, cytotoxic agents, or compound vehicles were added to duplicate plates and the incubation was continued for an additional 72 h. Final cell density was determined with Alamar Blue. In some experiments, a standard endpoint assay was used without analysis of initial cell density with Alamar Blue. Similar results were obtained with the two assays. EC50s were derived by nonlinear regression analysis assuming a sigmoidal dose-response using GraphPad Prism Software (San Diego, Calif.). Proliferation assays capable of measuring both cytostatic and cytotoxic responses were carried out as described herein with 15 non-transformed and transformed cell lines, including primary fibroblasts, non-transformed smooth muscle, leukemia, breast, colon, ovarian and uterine carcinoma cells (±P-gp expression). Although the compound of Formula 2 reversed P-gp-mediated MDR in the low nanomolar concentration range, the compound was non-cytotoxic by itself at doses up to 100 μM in all cell lines. […] IC50s for non-specific cytotoxicity were similar in matched cell lines plus and minus P-gp expression. […] If it were, some consistent degree of resistance would be expected in P-gp expressing cells.

MCF-7/ADR = test: Reversal of MDR in P-gp-expressing cell line; type: cell-based; conditions: Homo sapiens, NCI/ADR-RES, MCF-7/ADR breast, ± SD
Method: as §1

MES-SA/DX5 = test: Reversal of MDR in P-gp-expressing cell line; type: cell-based; conditions: Homo sapiens, MES-SA/DX5 uterine, ± SD
Method: as §1

SK/VLB1000 = test: Reversal of MDR in P-gp-expressing cell line; type: cell-based; conditions: Homo sapiens, SK/VLB1000 ovarian
Method: as §1

CEM/VLB1000 = test: Reversal of MDR in P-gp-expressing cell line; type: cell-based; conditions: Homo sapiens, CEM/VLB1000 lymphoma, ± SD
Method: as §1

[4] = system: P-gp-expressing Cell Lines; test: Modulation of P-gp-mediated drug resistance in vitro (panel statements); type: cell-based, human
Method: The compound of Formula 2 was able to reverse resistance to all classes of P-gp substrates in a wide variety of tumor cell types with EC50s in the low nM range (Table 2). Similar results were obtained with etoposide in several models. Complete reversal of MDR was typically seen with Formula 2 doses between 0.25 and 1.0 μM. Examples with cells expressing extremely high levels of P-gp as a result of drug selection (CEM/VLB1000), moderate levels of P-gp from gene transduction (MDA/LCC6 ^MDR1), and low (intrinsic) levels of P-gp (HCT-15) are illustrated in Table 2. The compound of Formula 2 had no effect on doxorubicin or paclitaxel IC50s in non-P-gp-expressing CCRF-CEM and MDA/LCC6 cells, respectively (FIG. 1, for MDA/LCC6 cells).
Cell proliferation IC50s and MDR reversal EC50s were determined from 3-day dose-response curves carried out in triplicate in 96-well plates essentially as described by Monks et al. (J. Natl. Cancer Inst., 83:757-66, 1991). Cells were plated in standard growth medium at 2.5 or 5.0×10^4 per well (CCRF-CEM and CEM/VLB1000 respectively) or 5×10^3 per well (all other cell lines) in a final volume of 100 μl. After a 2 h incubation for non-adherent cells and overnight incubation for adherent cells, the initial cell density was determined by fluorescence readout of Alamar Blue metabolism. […] Final cell density was determined with Alamar Blue. […]

[5] = system: 15 non-transformed and transformed cell lines; test: Proliferation assays, 15 non-transformed and transformed cell lines (panel statements); type: cell-based, human; conditions: for IC50: Homo sapiens, 15 cell lines
Method: as §1

MDA/LCC6^MDR1 = test: Reversal of MDR in P-gp-expressing cell line; type: cell-based, human; conditions: for EC50: Homo sapiens, MDA/LCC6^MDR1 breast
Method: as §1

[6] = read-out: Formula 2 compound EC50, reversal of Doxorubicin resistance
[7] = read-out: Formula 2 compound EC50, reversal of Paclitaxel resistance
[8] = read-out: Formula 2 compound EC50, reversal of Vinblastine resistance

Chain of human CYP3A4 (P08684 whole entry): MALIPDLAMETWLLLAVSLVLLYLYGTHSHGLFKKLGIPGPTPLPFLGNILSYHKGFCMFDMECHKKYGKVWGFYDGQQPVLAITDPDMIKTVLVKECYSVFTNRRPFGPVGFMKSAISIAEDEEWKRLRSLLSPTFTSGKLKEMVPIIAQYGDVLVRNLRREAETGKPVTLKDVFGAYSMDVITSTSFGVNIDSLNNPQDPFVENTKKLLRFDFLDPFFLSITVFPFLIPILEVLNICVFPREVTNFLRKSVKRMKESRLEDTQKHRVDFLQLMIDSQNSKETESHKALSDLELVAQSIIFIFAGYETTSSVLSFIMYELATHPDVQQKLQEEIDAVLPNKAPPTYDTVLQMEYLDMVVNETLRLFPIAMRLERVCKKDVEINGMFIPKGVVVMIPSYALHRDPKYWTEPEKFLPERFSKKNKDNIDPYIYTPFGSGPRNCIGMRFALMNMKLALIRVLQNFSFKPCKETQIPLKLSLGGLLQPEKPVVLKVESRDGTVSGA

CCOC/C=C/c1ccc(-c2nc(-c3ccc(NC(C)C)cc3)c(-c3ccc(NC(C)C)cc3)[nH]2)cc1 [Formula 2 compound]
Effect on hot-plate escape time ([1]; co-administration with loperamide, either 20 mg or 40 mg, dose dependent with respect to loperamide): significant increases | Mean time to escape the hot-plate ([1]; in the absence of loperamide): 20 s | In vivo anti-tumor activity of paclitaxel [2]: did enhance | Tumor formation (tumor-bearing mice): completely prevented tumor formation at several injection sites | Ki (human CYP3A4): 39800 ± 5100 nM | Ki (CYP3A4) relative to EC50s for reversal of MDR (human CYP3A4; higher): approximately 1000 fold | Saquinavir Concentration in CSF [3]: BLQ | EC50 (HCT-15): 1.6 nM | EC50 (MCF-7/ADR; [6]): 38 ± 6 nM | EC50 (MCF-7/ADR; [7]): 31 ± 4 nM | EC50 (MCF-7/ADR; [8]): 20 ± 10 nM | EC50 (MES-SA/DX5; [6]): 24 ± 6 nM | EC50 (MES-SA/DX5; [7]): 27 ± 7 nM | EC50 (MES-SA/DX5; [8]): 34 ± 7 nM | EC50 (SK/VLB1000; [7]): 33 nM | EC50 (SK/VLB1000; [8]): 15 nM | EC50 (SK/VLB1000; ± SD, read-out: Formula 2 compound EC50, reversal of Doxorubicin resistance): 25 ± 8 nM | EC50 (CEM/VLB1000; [6]): 90 ± 60 nM | EC50 (CEM/VLB1000; [8]): 70 ± 10 nM | MDR reversal potency after incubation in human plasma ([4]; human plasma): retained full MDR reversal potency | EC50s for reversal of resistance to all classes of P-gp substrates ([4]; wide variety of tumor cell types): low nM range | IC50 ([5]; read-out: Cytostatic IC50, average value): 60000 nM | IC50 ([5]; read-out: Cytostatic IC50s, range over cell lines): 6000 to 170000 nM | Cytotoxicity by itself ([5]; at doses up to 100 μM, all cell lines): non-cytotoxic | Resistance to paclitaxel treatment in vitro (MDA/LCC6^MDR1; FIG. 1): reversed | EC50 (MDA/LCC6^MDR1; [6]): 13 nM | EC50 (MDA/LCC6^MDR1; [7]): 9 nM

From patent US20070203215A1, “Methods & Compositions For Enhancing Pharmaceutical Treatments” (Taiji Biomedical, Inc., priority 1999, published 2007)
